Marks after values point to notes of the source that are not given here.
What was measured:
Assay type in all cases: physicochemical
[1] = Chemical stability evaluation (storage 1 week, liquid chromatography peak area %); conditions: for Chemical stability, conclusion in words: did not show a significant increase of related substances
Experimental: Each about 1 mg of a sample stored at 60° C. (sealed) or 60° C./75% RH (open) for 1 week and an unstored sample (at the start of test) was dissolved into a mixed solution of acetonitrile/water (1:1) (5 mL) to obtain each sample solution. A test was carried out by liquid chromatographic method under the following conditions to measure each peak area (%).
Each peak area (%) was measured by using Waters ACQUITY UPLC under the following conditions. • Detector: Photodiode array (measurement wavelength: 239 nm) • Column: Waters ACQUITY BEH C18 (2.1 mm×100 mm, 1.7 μm) • Column temperature: constant temperature about 40° C. • Mobile phase: Solution A; water/TFA (2000:1), Solution B; Acetonitrile/TFA (2000:1) • Concentration gradient control: B % 2→100% (15 minutes) • Flow rate: 0.5 mL/min • Injection volume: 2 μL
Each sample was stored at 60° C. under a sealed condition and at 60° C. under 75% RH for 1 week, and an increase or decrease of related substance(s) after the storage was calculated by high-performance liquid chromatographic method on the basis of the area percentage of each peak. Also, the condition of each sample after the storage was observed.

[2] = Thermal stability evaluation (TG/DTA weight change); conditions: for Thermal stability, conclusion in words: did not show a significant weight change (Succinate Form A: at 25 to 148° C., melting point)
Experimental: (§1) Thermal stability was measured and evaluated by using a thermogravimetry/differential thermal analyzer TG/DTA7200 (SII NanoTechnology Inc.) under the following conditions. • Rate of temperature increase: 10° C./min • Range of temperature increase: 25 to 300° C. • Atmosphere: nitrogen 200 mL/min <Hygroscopicity or Deliquescency Evaluation>
as §1, with “Inc.) under the following conditions • Rate of temperature increase: 10° C./min • Range of temperature increase: 30 to 300° C. • Atmosphere: nitrogen 200 mL/min • or • using a TGA/DSC1 thermogravimetric analyzer (manufactured by Mettler Toledo, STARe system)” for “Inc.)”, “nitrogen 50” for “nitrogen 200”

[3] = Hygroscopicity or deliquescency evaluation (moisture adsorption, DVS); conditions: for Hydration state (hydration stage in moisture adsorption): normal temperature, relative humidity of 10 to 95%
Experimental: Hygroscopicity or deliquescency was evaluated as follows by using a moisture adsorption measurement device DVS-1 or DVS-intrinsic (Surface Measurement Systems Limited). Each sample (about 5 mg) was placed into an aluminum plate of which the tare weight had been corrected in advance, and the plate was hung on the precision balance of said device to precisely measure the weight at the start of measurement. The humidity was changed in a stepwise manner in a chamber at 25° C., the weight change was recorded with time, and the equilibrium weight was calculated at each humidity. On the basis of the weight at a dried condition (0% RH), the weight change rate and hydration number at each humidity were calculated.
Hygroscopicity or deliquescency was evaluated as follows by using a moisture adsorption measurement device DVS-1 or DVS-intrinsic (Surface Measurement Systems Limited). Each sample was placed into a cell of which the tare weight had been corrected in advance, and the cell was hung on the precision balance of said device to precisely measure the weight at the start of measurement. The humidity was changed in a stepwise manner, the weight change was recorded with time, and the equilibrium weight was calculated at each humidity. On the basis of the weight of anhydride converted from the amount of water at a dried condition (0% RH) or at the start of measurement observed by an alternative method, the weight change rate at each humidity was calculated.

[4] = Table 5, change of related substances (peak area %) vs start
[5] = Table 5, stored 1 week at 60° C. sealed, change of related substances (peak area %) vs start
[6] = Table 5, 25° C., relative to weight at 0% RH
[7] = Table 10, increase or decrease of related substance(s), HPLC area percentage
[8] = Table 10, *1 with hydration stage

## CC(=O)NC1CCC(NC(=O)CN2CCN(c3nncc(-c4ccc(C)cc4)n3)CC2)CC1.O=C(O)CC(O)(CC(=O)O)C(=O)O (centres unmarked) [Citrate Form A crystal]
[1]; [4]
  Chemical stability 60° C., 75% RH, 1 week (open): 0.03%
[1]; [5]
  Chemical stability 60° C. (sealed): −0.03%
[1]
  Chemical stability, conclusion in words: excellent chemical stability
[2]; 25° C.-melting point
  Thermal stability TG: weight change: 2.2%
[2]
  Thermal stability, conclusion in words: excellent thermal stability
[3]; [6]
  Hygroscopicity or Deliquescency Weight change at 90% RH: 7.6%

## CC(=O)NC1CCC(NC(=O)CN2CCN(c3nncc(-c4ccc(C)cc4)n3)CC2)CC1.O=C(O)CO (centres unmarked) [Glycolate Form A crystal]
[1]; [4]
  Chemical stability 60° C., 75% RH, 1 week (open): 0.02%
[1]; [5]
  Chemical stability 60° C. (sealed): 0.02%
[1]
  Chemical stability, conclusion in words: excellent chemical stability
[2]; 70° C.-melting point
  Thermal stability TG: weight change: 14.4%
[3]; [6]
  Hygroscopicity or Deliquescency Weight change at 90% RH: 1.9%
[3]; from Table 5
  Hygroscopicity or deliquescency, conclusion in words: excellent in the reduced hygroscopicity or deliquescency

## Br.Br.CC(=O)NC1CCC(NC(=O)CN2CCN(c3nncc(-c4ccc(C)cc4)n3)CC2)CC1 (centres unmarked) [Hydrobromide Form F crystal]
[1]; Table 10, 1 week, increase or decrease of related substance(s), HPLC area percentage
  Chemical stability 60° C. (sealed): 0.02%
[1]; [7]
  Chemical stability 60° C., 75% RH, 1 week (open): 0.12%
[2]; Table 10, room temperature −200° C.
  Thermal stability TG: weight change: 4.8%
[3]; [8]
  Hygroscopicity or Deliquescency Weight change at 90% RH: 3.5%*^1
[3]
  Hydration state (hydration stage in moisture adsorption): hydrate

## Br.CC(=O)NC1CCC(NC(=O)CN2CCN(c3nncc(-c4ccc(C)cc4)n3)CC2)CC1 (centres unmarked) [Hydrobromide Form N crystal]
[1]; [7]
  Chemical stability 60° C., 75% RH, 1 week (open): 0.00%
[2]; Table 10, 25-242° C.
  Thermal stability TG: weight change: 6.2%
[3]; [8]
  Hygroscopicity or Deliquescency Weight change at 90% RH: 7.2%*^1
[3]
  Hydration state (hydration stage in moisture adsorption): hydrate

## CC(=O)NC1CCC(NC(=O)CN2CCN(c3nncc(-c4ccc(C)cc4)n3)CC2)CC1.Cl (centres unmarked) [Hydrochloride Form A crystal]
[1]; [4]
  Chemical stability 60° C., 75% RH, 1 week (open): −0.01%
[1]; [5]
  Chemical stability 60° C. (sealed): −0.01%
[1]
  Chemical stability, conclusion in words: excellent chemical stability
[2]; 25-160° C.
  Thermal stability TG: weight change: 0.4%
[2]
  Thermal stability, conclusion in words: excellent thermal stability
[3]; [6]
  Hygroscopicity or Deliquescency Weight change at 90% RH: 7.5%

## CC(=O)NC1CCC(NC(=O)CN2CCN(c3nncc(-c4ccc(C)cc4)n3)CC2)CC1.Cl.Cl (centres unmarked) [Hydrochloride Form B crystal]
[3]; [6]
  Hygroscopicity or Deliquescency Weight change at 90% RH: 5.5%

## CC(=O)NC1CCC(NC(=O)CN2CCN(c3nncc(-c4ccc(C)cc4)n3)CC2)CC1.O=C(O)CC(O)C(=O)O (centres unmarked) [Malate Form A crystal]
[2]; 25-280° C.
  Thermal stability TG: weight change: 21.2%
[3]; [6]
  Hygroscopicity or Deliquescency Weight change at 90% RH: 15%

## CC(=O)NC1CCC(NC(=O)CN2CCN(c3nncc(-c4ccc(C)cc4)n3)CC2)CC1.O=C(O)C=CC(=O)O (centres unmarked) [Maleate Form A crystal]
[1]; [4]
  Chemical stability 60° C., 75% RH, 1 week (open): 0.12%
[1]; [5]
  Chemical stability 60° C. (sealed): 0.01%
[1]
  Chemical stability, conclusion in words: excellent chemical stability
[2]
  Thermal stability, conclusion in words: excellent thermal stability
[2]; no temperature range printed
  Thermal stability TG: weight change: 0.0%
[3]; [6]
  Hygroscopicity or Deliquescency Weight change at 90% RH: 22%

## CC(=O)NC1CCC(NC(=O)CN2CCN(c3nncc(-c4ccc(C)cc4)n3)CC2)CC1.O=C(O)C=CC(=O)O (centres unmarked) [Maleate Form B crystal]
[1]; [4]
  Chemical stability 60° C., 75% RH, 1 week (open): 9.66%
[1]; Table 5, remark in words under the value (glycolate: free body was observed at 60° C., 75% RH, 1 week)
  Condition of the sample after storage at 60° C., 75% RH, 1 week (open): (deliquescent)
[1]; [5]
  Chemical stability 60° C. (sealed): 0.02%
[2]; 25-90° C.
  Thermal stability TG: weight change: 0.4%
[2]; 120-260° C.
  Thermal stability TG: weight change: 17.6%
[2]
  Thermal stability, conclusion in words: excellent thermal stability
[3]; [6]
  Hygroscopicity or Deliquescency Weight change at 90% RH: 7.5%

## CC(=O)NC1CCC(NC(=O)CN2CCN(c3nncc(-c4ccc(C)cc4)n3)CC2)CC1.CC(=O)NC1CCC(NC(=O)CN2CCN(c3nncc(-c4ccc(C)cc4)n3)CC2)CC1.O=S(=O)(O)O.O=S(=O)(O)O.O=S(=O)(O)O.O=S(=O)(O)O.O=S(=O)(O)O (centres unmarked) [Sulfate Form A crystal]
[3]; [6]
  Hygroscopicity or Deliquescency Weight change at 90% RH: 8%

From US12686666B2, “Triazine compound salt, crystal form thereof, and production method therefor” (TANABE PHARMA CORPORATION, priority 2020, dated 2026)
